The text below walks through data of patent US20260242606A1, “PROCESS OF PREPARATION OF RESIDUE FREE SOLVENT BLUE 67 DYE” (RATHI DYE CHEM (P) LTD, priority 2023, published 2026).

A short description of the series: Estimation of residue content in Solvent Blue 67 dye by filtration of the dye solution in organic solvent. In kind it is physicochemical. The protocol: For the preparation of Solvent Blue 67, chlorosulfonation is carried out in a vessel by reacting chlorosulfonic acid with 300 g of crude copper phthalocyanine blue (CPC) in presence of acid chloride followed by the process of drowning, filtration, homogenization, condensation, clarification, filtration, spin flash drying, airclassifying and sieving to retrieve the final product. The final product obtained is 560 g to 600 g of Solvent Blue 67 with purity 100%+5% coloristic value. Further, the estimation of residue content is determined by filtration process of prepared Solvent Blue 67 dye using organic solvent and the weight of residue is calculated.
An adequate quantity of Solvent Blue 67 of about 20 g to 60 g is dissolved in 50 ml to 150 ml of alkyl ester (or alkyl ketonic organic solvent) based on end process in a glass beaker. […]
The resultant dye solution is filtered through a filtration assembly. […] The residue left in the beaker is quantitatively transferred to the filter using 20 ml to 30 ml of alkyl ester (or alkyl ketonic organic solvent) and the filtrate is further washed with 15 to 25 ml of the same solvent to make it colour free. […] The weight of residue is calculated as weights of before and after filtration and expressed in PPM. […]

On to Solvent Blue 67, for which, for the setting “Example 1, after clarification 225 (circulated in filter of 10 to 100 mesh up to 24 hrs), cake dried”, the residue content entry is reported as “below 40 PPM”. Also, the “presence of residue (FIGS. 2a and 2b)” value (dye dissolved in alkyl ester or alkyl ketonic organic solvent, filtered through 20 to 50 micron stainless-steel mesh) was “does not show presence of any amount of residue”.
